In US5652366A, “DI (1R)-(-)camphosulfonic acid) salt, preparation thereof and use thereof” (Rhone-Poulenc Rorer Pharmaceuticals Inc., priority 1995, dated 1997):

Experiments:
[1] = system: myocardial infarct in Sprague-Dawley rats; experiment: Cardioprotective activity in rat: myocardial infarct size after coronary occlusion/reperfusion; format: in vivo; conditions: control 63 ± 5, preconditioned 15 ± 8
Experimental: Adult Sprague-Dawley rats are anesthetized with Inactin (100 mg/kg i.p.). The trachea is intubated and positive pressure ventilation is provided via a small animal respirator. Catheters are placed in the femoral vein and artery for administration of compounds of the present invention to be tested, and measurement of blood pressure, respectively. An incision is made on the left side of the thorax over the pectoral muscles, and the muscles are retracted to expose the fourth intercostal space. The chest cavity is opened and the heart is exposed. A length of 4-0 proline suture is placed through the ventricular wall near the left main coronary artery and is used to interrupt blood flow through the cornary artery by tightening a slip-knot. A pulsed-Doppler flow probe (a device which measures blood flow) is placed on the surface of the heart to confirm that the coronary artery has been porperly identified. […]
For preconditioning the heart, the coronary artery is occluded (flow is interrupted) for a period of two minutes. […] Infarct size is determined by slicing the heart from apex to base into four to five slices 1-2 mm thick. […] The tissue slices are placed in a video image analysis system and infarct size is determined by planimetry. The effect of the compound of the present invention tested on myocardial infarct size is assessed and used to quantirate the extent of cardioprotective activity. […]

rat adipocytes = experiment: In vitro lipolysis assay in rat adipocytes (glycerol production); format: cell-based; conditions: Rattus norvegicus, Adipocyte, read-out: EC50 (50% inhibition of glycerol production); unit nM in cell
A2 receptor = conditions: relative to NECA; cited from earlier work
A1 and A2 receptors = conditions: reported developments; cited from earlier work

| SMILES | % Risk Area Infarcted ([1]; Compound High: i.v. bolus 10 μg/kg, then 1 μg/kg/minute from 30 minutes prior to occlusion to 2 hours after reperfusion) [%] | % Risk Area Infarcted ([1]; Compound Low: i.v. bolus 1 μg/kg, then 0.1 μg/kg/minute for 30 minutes prior to occlusion) [%] | EC50 (rat adipocytes) [nM] | fold less potent than NECA in affinity for the A2 receptor (A2 receptor) [fold] | A2/A1 ratio (A1 and A2 receptors) |
| --- | --- | --- | --- | --- | --- |
| CCNC(=O)[C@H]1C[C@@H](n2cnc3c(N[C@H](CC)Cc4sccc4Cl)ccnc32)[C@H](O)[C@@H]1O (single isomer, unassigned) [Example 39, [1S-[1α,2β,3β,4α(S*)]]-4-[7-[[2-(3-chloro-2-thienyl)-1-ethylethyl]amino]-3 H-imidazo[4,5-b]pyridin-3-yl]-N-ethyl-2,3-dihydroxycyclopentane-carboxamide] | 18 ± 5 | 23 ± 9 | 5.4 |  |  |
| Nc1nc(Nc2ccccc2)nc2c1ncn2[C@@H]1O[C@H](CO)[C@@H](O)[C@H]1O [CV-1808] |  |  |  | 10 | 0.19 |
